Measured values: patent publication US7049337B2 (Wayne State University, priority 2000, dated 2006)
Where two headings read alike, the source gives them in different places.

Tests used:
human D2L receptor = biological target: T1, human D2L receptor (Homo sapiens, UniProt P14416); test: [3H]spiperone binding to cloned human D2L receptors in HEK 293 cell membranes
T1 construct: expressed in transfected cells; host or cells: HEK 293 cells, stably transfected (Watts and colleagues, Oregon Health Sciences University); membranes prepared from the cells
Protocol: (§1) The target compounds synthesized were assayed for differential CNS activity by binding studies employing cloned human receptors expressed in HEK cells. […] The compounds were evaluated for their binding at the D2 and D3 receptors.
(§2) Binding affinities of these novel compounds were assessed according to previously published procedures. V. J. Watts et al., EUR. J. PHARMACOL., 1993, 239,271; V. J. Watts et al., EUR. J. PHARMACOL., 1996, 50, 966. Human embryonic kidney (HEK) 293 cells were stably transfected with cDNA for the human D2L and D3 receptors by Watts and colleagues at Oregon Health Sciences University in accordance with published procedures; V. J. Watts, MOL. PHARMACOL, op. cit., and graciously shipped to the University of Illinois for receptor binding assays. Membranes were prepared from the cells as described previously, V. J. Watts et al., EUR. J. PHARMACOL., 1993, op. cit. […] (+)-Butaclamol (2 ,μM) was used to define nonspecific binding. Assays were terminated with a 24-pin Brandel harvester as described previously, M. E. A. Reith et al., BIOL. CHEM. 1986, 261, 7300. IC50 values were estimated by nonlinear regression analysis with the ALLFIT equation, and converted to inhibition constants (Ki) by the Cheng-Prusoff equation as in previous work, Reith et al., J. BIOL. CHEM., op. cit.

human D3 receptor = biological target: T2, human D3 receptor (Homo sapiens, UniProt P35462); test: [3H]spiperone binding to cloned human D3 receptors in HEK 293 cell membranes; details: for D3 receptor activity compared with control, in words: displacing [3H]spiperone from D3 receptors in HEK cells, racemic compounds versus (+)-7-OH-DPAT; for D2L/D3L: ratio of Ki D2L to Ki D3; for Differential activity (D2L/D3) compared with control, in words: versus (+)-7-OH-DPAT control
T2 construct: expressed in transfected cells; host or cells: HEK 293 cells, stably transfected (Watts and colleagues, Oregon Health Sciences University); membranes prepared from the cells
Protocol: as §1, §2

[1] = cloned human D2L in HEK cells, 0.4 nM [3H]spiperone, 1 h, 30° C., no GTP, mean ± spread (n)

T1 sequence (P14416 whole entry): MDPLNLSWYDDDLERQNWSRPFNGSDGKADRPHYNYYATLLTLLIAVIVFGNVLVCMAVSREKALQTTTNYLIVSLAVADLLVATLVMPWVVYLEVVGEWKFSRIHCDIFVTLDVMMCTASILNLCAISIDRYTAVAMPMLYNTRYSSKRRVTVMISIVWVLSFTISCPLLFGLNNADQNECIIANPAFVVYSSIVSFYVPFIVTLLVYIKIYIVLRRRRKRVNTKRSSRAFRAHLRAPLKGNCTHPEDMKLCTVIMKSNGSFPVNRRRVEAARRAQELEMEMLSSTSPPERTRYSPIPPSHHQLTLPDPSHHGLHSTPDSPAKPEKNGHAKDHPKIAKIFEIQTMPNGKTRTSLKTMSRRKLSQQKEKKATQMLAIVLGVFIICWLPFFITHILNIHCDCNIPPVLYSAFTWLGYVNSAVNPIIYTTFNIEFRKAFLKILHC
T2 sequence (P35462 whole entry): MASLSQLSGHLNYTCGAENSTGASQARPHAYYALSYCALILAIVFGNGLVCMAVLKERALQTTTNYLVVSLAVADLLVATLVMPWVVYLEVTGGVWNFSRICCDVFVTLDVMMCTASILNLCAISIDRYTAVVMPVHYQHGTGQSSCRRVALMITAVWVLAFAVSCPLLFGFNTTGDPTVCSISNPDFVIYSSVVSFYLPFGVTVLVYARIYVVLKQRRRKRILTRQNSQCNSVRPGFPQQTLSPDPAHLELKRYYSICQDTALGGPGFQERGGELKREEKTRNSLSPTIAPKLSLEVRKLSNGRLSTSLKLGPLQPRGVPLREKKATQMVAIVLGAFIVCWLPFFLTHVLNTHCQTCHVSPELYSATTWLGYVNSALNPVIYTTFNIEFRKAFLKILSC

Ki (human D3 receptor; cloned human D3 in HEK cells, 0.4 nM [3H]spiperone, 1 h, 30° C., no GTP, mean ± spread (n))	SMILES	Ki (human D2L receptor; [1])	Ki (human D3 receptor)	D3 receptor activity compared with control, in words (human D3 receptor)	D2L/D3L (human D3 receptor)	Differential activity (D2L/D3) compared with control, in words (human D3 receptor)	Ki (human D2L receptor; read-out: D2L HEK Cells [^3H]spiperone, Ki, […] nM [3H]spiperone, 1 h, 30° C., no GTP, mean ± spread (n))	Ki (human D3 receptor; read-out: D3 HEK Cells [^3H]spiperone, Ki, cloned human D3 in HEK cells, 0.4 nM [3H]spiperone, 1 h, 30° C., no GTP, mean ± spread (n))
–	C#CCN(CCCC)C1CCc2ccc(O)cc2C1 (racemic) [Example 4, (R,S)-trans-7-Hydroxy-2-[N-propynyl-N-(butyl-amino]tetralin]	534 ± 72 nM	4.9 ± 1.2 nM	about as active as the (+) isomer	108	slightly greater activity differential	–	–
23.5 ± 4.7 nM	C#CCN(CCCC#N)C1CCc2ccc(O)cc2C1 (racemic) [Example 8, (R,S)-trans-7-Hydroxy-2-[N-propynyl-N-(3′-cyano-1′-propyl)amino]tetralin]	8310 nM	–	about the same as the control	353	more than double the activity differential of the control	–	–
–	C#CCN(CC)C1CCc2ccc(O)cc2C1 (racemic) [Example 5, (R,S)-trans-7-Hydroxy-2-[N-propynyl-N-ethyl-amino]tetralin]	1490 nM	13.8 ± 2.8 nM	high activity, though not as high as the compound of Example 4 or the control	108	as high as the compound of Example 4	–	–
–	C#CCN(CCc1cccs1)C1CCc2ccc(O)cc2C1 (racemic) [Example 7, (R,S)-trans-7-Hydroxy-2-[N-propynyl-N-ethyl(thienyl)-amino]tetralin]	–	–	about the same as the control	211	more than double the activity differential of the control	1700 nM	8 ± 0.3 nM
–	C#CCN(CCc1ccc(F)cc1)C1CCc2ccc(O)cc2C1 (racemic) [Example 6, (R,S)-trans-7-Hydroxy-2-[N-propynyl-N-ethyl(4′-fluorophenyl)amino]tetralin]	1610 nM	14.5 ± 4.1 nM	–	111	about the same as the control	–	–
